Reference: US20250288558A1, “THERAPEUTIC FOR SPINAL CORD INJURY TO INDUCE HYPOTHERMIA” (The Trustees of Indiana University, priority 2024, published 2025)
“And” between values parts separate entries of the source, which are not always exact repeats. Equal entries are not always repeated. Structures can show the parent of a compound that is named as a salt. Where two headings read alike, the source gives them in different places.

What was measured:
[1] = system: spinal cord coronal sections of SCI mice; settings: female, n=3
Protocol: We first measured the lesion size and spared white matter using cresyl violet and cosin staining.
Tissue Processing: All the animals were deeply anesthetized with Avertin and then perfused transcardially with cold saline, followed by a fixative containing 4% paraformaldehyde (PFA) in PBS. The spinal cord was removed, post-fixed overnight in PFA, and cryoprotected for 48 hours in 30% sucrose. Serial 30 μm thick coronal sections were cut using a cryostat (Leica CM 1950), mounted on slides and stored at −20° C. The sections were then processed for histopathological analysis.
Cresyl violet and cosin staining: A set of slides were first removed from the freezer and allowed to air dry for a minimum of 60 minutes at room temperature. Subsequently, the sections were treated with two 5-minute rinses in 10 mM PBS, followed by a 1-minute rinse in ddH2O. Next, slides were immersed for 20 minutes in Nissl stain, followed by two 5-minute rinses in ddH2O. Subsequently, slides were sequentially immersed in 90% ethanol (3 minutes), 95% ethanol (3 minutes), two changes of 100% ethanol (3 minutes each), and finally, three changes of 100% xylene (3 minutes each). Lastly, slides were mounted using Permount.

[2] = system: GFAP; settings: epicenter
Protocol: Immunofluorescent Staining: Immunofluorescent staining was carried out according to our previous reports. In brief, sections on the slides were rinsed in PBS 3 times (5 minutes each) and incubated in blocking buffer (0.1% Triton X-100, 1% bovine serum albumin, and 5% normal serum in PBS) for 1 hour at room temperature. Then, primary antibodies were added to blocking buffer and incubated with sections overnight at 4° C. After 3 washes with PBS (5 minutes each), sections were incubated with the secondary antibody for 1 hour at room temperature and then treated with 4′,6-Diamidino-2-phenylindole (DAPI) for 2 minutes. Finally, sections were washed 3 times with PBS (5 minutes each), dried, and mounted using Fluoromount G (Southern Biotech, Birmingham, AL, USA). Primary antibodies and their final concentrations were as follows: NeuN antibody (1:500, chicken, Abcam, ab134014), SMI31 antibody (1:1000, mouse, Millipore, NE1022), and GFAP antibody (1:1000, mouse, Sigma, G3893).

[3] = system: mice with moderate T9 contusive SCI; settings: weeks 3-6 post-injury, n=10, p<0.05
Description: Thus, Rotarod was further performed to assess motor coordination, balance, and motor learning specifically post-injury.
Rotarod test: Rotorod is used to assay the hindlimb function of the animal. The animal was put on a rotated device. It consisted of a metal frame with a motorized, rotating assembly of rods. Animals were allowed to remain stationary. […] If animal skilled, it can remain on the device at this speed for extra 30 sec until the 2-min test period elapsed. Normally, a trial was ended if the animal fell completely off the rod or gripped the rod and spun around without attempting to walk on the rod. Mean duration on the rod was recorded.

[4] = system: mouse with a SCI; settings: metabolic cage, n=5
[5] = system: none-injury young adult c57 BL/6 mice
Protocol: (§1) The effects of different doses of Dex on hypothermia induction in none-injury young adult c57 BL/6 mice was tested. […] Further, we examined the change of Dex induced hypothermia when the routine Avertin (2.5%), a wildly used anesthetic for small animal surgery was applied.

[6] = system: mice with moderate contusive spinal cord injury (SCI) at thoracic 9 (T9)
Protocol: as §1
Therefore, we compared the functional outcomes of Dex treated SCI mice with SCI only mice using multiple behavior tests post-trauma. C57 BL/6 wild type mice (female) at age of 8 weeks were randomly assigned into three different groups, including sham, SCI, and SCI+Dex. Then the moderate T9 contusive SCI was introduced in two injury groups using LISA injury model. Mice in sham and SCI only group were put on the heating pad to maintain their normal body temperature, while mice in Dex treated group were exposed in ambient room temperature of 24.5° C. for hypothermia during whole surgery and recovery process. One hour after injury, one dose of Dex (100 μg/kg) was IP administrated to rapidly induce early moderate to modest therapeutic hypothermia (30-32° C.). All mice body temperature were measured by rectal probe every 30 minutes to monitor the hypothermia after surgery till the mice fully waked up and back to normothermia. After SCI injury, at different time, multiple behavioral tests, were applied to examine functional outcomes and the potential neuroprotective effects of Dex treatment (FIG. 3A). The Basso Mouse Scale (BMS) was a reliable measurement that developed to examine the locomotion in spinal cord injured mice. It has been widely used in mouse functional evaluation and serves as an indicator of recovery. This test examines different locomotor categories such as paralysis, weight support, stepping, trunk stability, and so on. The scores ranged from 9 to 0 that represent normal movement to complete paralysis, respectively. Three days prior surgery, the BMS scores of all mice in different groups were measured. Only mice with 9 score were kept. The mice with score lower than 9 were replaced to make sure mice in different groups had same baseline of locomotion. After surgery, the BMS score was repeatedly measured at 3 days, 1 week, 2 weeks, 3 weeks, 4 weeks, 5 weeks, and 6 weeks (FIG. 3B).
Contusive spinal cord injury: Adult female C57BL/6 mice (8 weeks old, 18-22 g) were purchased from The Jackson Laboratory (Bar Harbor, ME). Depending on different injury model, mice were either randomly divided into three groups: sham, SCI+heating pad, and SCI+Dex for LISA injury model, or were randomly divided into four groups: sham, SCI+heating pad, SCI+Dex, and SCI+Conventional hypothermia for Infinite Horizons (IH) model. […]

[7] = system: mouse with a SCI; settings: 4 hours after 1 ml saline IP injection, n=5

Q: Which results are given for Cc1cccc([C@H](C)c2cnc[nH]2)c1C [Dex, dexmedetomidine hydrochloride]?
A: total area of spinal cord section, SCI+Dex vs. SCI [1]: no significant difference; intensity of GFAP-positive signal compared to none-treatment SCI mice [2]: decreased significantly; increased rate of Rotarod retention time vs. SCI only [3]: around 75%; urination volume ([4]; 24 hours): 0.48 ± 0.22 mL; residual urine volume [4]: 0.4 ± 0.22 mL; hypothermia induction ([5]; Dex 1 μg/kg IP, none-injury mice): failed to induce hypothermia; hypothermia induction ([5]; Dex 10 μg/kg IP, none-injury mice): failed to induce hypothermia; duration of hypothermia ([5]; Dex 50 μg/kg IP, ambient temperature 24.5° C.): less than one hour; hypothermia body temperature ([5]; Dex 50 μg/kg IP, ambient temperature 24.5° C., mild hypothermia): 34-35 °C; duration of hypothermia ([5]; Dex 50 μg/kg one hour post Avertin (2.5%), none-injury mice): 2 h; duration of hypothermia ([5]; Dex 100 μg/kg IP alone, ambient temperature 24.5° C., hydrochloride): 2 h and 3 h; hypothermia body temperature ([5]; Dex 100 μg/kg IP, mild to moderate hypothermia): 30-32 °C; duration of hypothermia ([5]; Dex 100 μg/kg one hour post Avertin (2.5%), none-injury mice): 6 h; death of treated mice ([5]; Dex 200 μg/kg IP, due to urethral obstructions): about 40%; hypothermia body temperature ([5]; Dex 200 μg/kg IP, more severe hypothermia): lower than 28 °C; induced hypothermia body temperature ([5]; in one hour at ambient temperatures 24-25° C., modest hypothermia): 30-32 °C; time at which normal body temperature was regained ([6]; Dex 100 μg/kg 1 hour after T9 SCI): 24 hr post trauma; duration of hypothermia ([6]; Dex 100 μg/kg one hour after T9 SCI (LISA)): up to 16 hours; time to spontaneously rewarm to normal temperature ([6]; Dex 100 μg/kg one hour after T9 SCI, after the hypothermia period): 5 to 6 h; rewarming rate ([6]; Dex 100 μg/kg one hour after T9 SCI, spontaneous rewarming, hydrochloride): < 1.0 °C per hour; frequency of urination [7]: 6±0.82; urine volume [7]: 0.3 ± 0.04 mL
